Data published in patent US20140162980A1, “NOVEL MICROBIOCIDAL DIOXIME ETHER DERIVATIVES” (SYNGENTA CROP PROTECTION LLC, priority 2010, published 2014).

Legend:
[1] = system: Puccinia recondita f. sp. tritici; test: Puccinia recondita f. sp. tritici / wheat / leaf disc curative (brown rust); format: in vivo; settings: foliar, 200 ppm applied 1 day after inoculation, wheat leaf segments cv Kanzler, assessed 6-8 days after application, read-out: control of Puccinia recondita f. sp. tritici, curative (percent disease control compared to untreated)
Method: Puccinia Recondita f. Sp. Tritici/Wheat/Leaf Disc Curative (Brown Rust): Wheat leaf segments cv Kanzler were placed on agar in 24-well plates. The leaf segments were inoculated with a spore suspension of the fungus. The plates were stored in darkness at 19° C. and 75% relative humidity. The formulated test compound diluted in water was applied at an application rate of 200 ppm 1 day after inoculation.

[2] = system: Phaeosphaeria nodorum (Septoria nodorum); test: Phaeosphaeria nodorum (Septoria nodorum) / wheat / leaf disc preventative (glume blotch); format: in vivo; settings: Parastagonospora nodorum, foliar, wheat leaf segments cv Kanzler, inoculated 2 days after application, assessed 5-7 days after application, read-out: control of Phaeosphaeria nodorum (percent disease control compared to untreated)
Method: Phaeosphaeria Nodorum (Septoria nodorum)/Wheat/Leaf Disc Preventative (Glume Blotch): Wheat leaf segments cv Kanzler were placed on agar in a 24-well plate and sprayed with formulated test compound diluted in water at an application rate of 200 ppm. The leaf disks are inoculated with a spore suspension of the fungus 2 days after application. The inoculated test leaf disks are incubated at 20° C. and 75% relative humidity under a light regime of 12/12 h (light/dark) in a climate cabinet and the activity of a compound is assessed as percent disease control compared to untreated when an appropriate level of disease damage appears in untreated check leaf disks (5-7 days after application).

[3] = system: Puccinia recondita f. sp. tritici; test: Puccinia recondita f. sp. tritici / wheat / leaf disc preventative (brown rust); format: in vivo; settings: foliar, wheat leaf segments cv Kanzler, inoculated 1 day after application, assessed 7-9 days after application, read-out: control of Puccinia recondita f. sp. tritici, preventative (percent disease control compared to untreated)
Method: Puccinia Recondita f. Sp. Tritici/Wheat/Leaf Disc Preventative (Brown Rust): Wheat leaf segments cultivated variety (cv) Kanzler were placed on agar in 24-well plates and sprayed with formulated test compound diluted in water at an application rate of 200 ppm. The leaf disks were inoculated with a spore suspension of the fungus 1 day after application. The inoculated leaf segments were incubated at 19° C. and 75% relative humidity under a light regime of 12/12 h (light/dark) in a climate cabinet and the activity of a compound was assessed as percent disease control compared to untreated when an appropriate level of disease damage appears in untreated check leaf segments (7-9 days after application).

Pyrenophora teres = Pyrenophora teres / barley / leaf disc preventative (net blotch); format: in vivo; settings: foliar, barley leaf segments cv Hasso, inoculated two days after application, assessed 5-7 days after application, read-out: control of Pyrenophora teres (disease control compared to untreated)
Method: Pyrenophora Teres/Barley/Leaf Disc Preventative (Net Blotch): Barley leaf segments cv Hasso are placed on agar in a 24-well plate and sprayed with formulated test compound diluted in water at an application rate of 200 ppm. The leaf segments are inoculated with a spore suspension of the fungus two days after application of the test solution. The inoculated leaf segments are incubated at 20° C. and 65% relative humidity under a light regime of 12/12 h (light/dark) in a climate cabinet and the activity of a compound is assessed as disease control compared to untreated when an appropriate level of disease damage appears in untreated check leaf segments (5-7 days after application).

[4] = system: Blumeria graminis f. sp. tritici (Erysiphe graminis f. sp. tritici); test: Blumeria graminis f. sp. tritici / wheat / leaf disc preventative (powdery mildew on wheat); format: in vivo; settings: foliar, wheat leaf segments cv. Kanzler, inoculated 1 day after application, assessed 6-8 days after application, read-out: control of Blumeria graminis (percent disease control compared to untreated)
Method: Blumeria Graminis f. Sp. Tritici (Erysiphe Graminis f. Sp. Tritici)/Wheat/Leaf Disc Preventative (Powdery Mildew on Wheat):
Wheat leaf segments cv. Kanzler were placed on agar in a 24-well plate and sprayed with the formulated test compound diluted in water at an application rate of 200 ppm. The leaf disks were inoculated by shaking powdery mildew infected plants above the test plates 1 day after application. The inoculated leaf disks were incubated at 20° C. and 60% relative humidity under a light regime of 24 h darkness followed by 12 h/12 h (dark/light) in a climate chamber and the activity of a compound was assessed as percent disease control compared to untreated when an appropriate level of disease damage appears on untreated check leaf segments (6-8 days after application). The following compounds gave at least 80% control of Blumeria graminis: […]

[5] = system: Botryotinia fuckeliana (Botrytis cinerea); test: Botryotinia fuckeliana (Botrytis cinerea) / liquid culture (gray mould); format: cell-based; settings: Vogels broth, 24° C., 3-4 days after application, read-out: control of Botryotinia fuckeliana (inhibition of growth, photometrically)
Method: Botryotinia Fuckeliana (Botrytis cinerea)/Liquid Culture (Gray Mould): Conidia of the fungus from cryogenic storage were directly mixed into nutrient broth (Vogels broth). After placing a DMSO solution of test compound into a 96-well microtiter plate at an application rate 200 ppm, the nutrient broth containing the fungal spores was added. The test plates were incubated at 24° C. and the inhibition of growth was determined photometrically 3-4 days after application.

Phytophthora infestans = test: whole plant or invertebrate; format: in vivo; settings: in Solanum lycopersicum, foliar, read-out: control of Phytophthora infestans (percent disease control compared to untreated)
[6] = system: Magnaporthe grisea (Pyricularia oryzae); test: whole plant or invertebrate; format: in vivo; settings: foliar, read-out: control of Magnaporthe grisea (percent disease control compared to untreated)
Pythium ultimum = Pythium ultimum / liquid culture (seedling damping off); format: cell-based; settings: Globisporangium ultimum, PDB potato dextrose broth, 24° C., 2-3 days after application, read-out: control of Pythium ultimum (inhibition of growth, photometrically)
Method: Pythium Ultimum/Liquid Culture (Seedling Damping Off): Mycelia fragments and oospores of a newly grown liquid culture of the fungus were directly mixed into nutrient broth (PDB potato dextrose broth). After placing a DMSO solution of test compound into a 96 well microtiter plate at an application rate 200 ppm, the nutrient broth containing the fungal mycelia/spore mixture was added. The test plates were incubated at 24° C. and the inhibition of growth was determined photometrically 2-3 days after application.

[7] = system: Thanatephorus cucumeris (Rhizoctonia solani); test: Thanatephorus cucumeris (Rhizoctonia solani) / liquid culture (foot rot, damping-off); format: cell-based; settings: PDB potato dextrose broth, 24° C., 3-4 days after application, read-out: control of Thanatephorus cucumeris (inhibition of growth, photometrically)
Method: Thanatephorus Cucumeris (Rhizoctonia solani)/Liquid Culture (Foot Rot, Damping-Off): Mycelia fragments of a newly grown liquid culture of the fungus are directly mixed into nutrient broth (PDB potato dextrose broth). After placing a DMSO solution of the test compounds into a 96-well microtiter plate at an application rate 200 ppm, the nutrient broth containing the fungal material was added. The test plates were incubated at 24° C. and the inhibition of growth was determined photometrically 3-4 days after application.

Cc1ccc2c(n1)/C(=N/OCC(O)CO/N=C1\CCCc3ccc(C)nc31)CCC2 (centres unmarked) [P.11]
≥ 80%: pest or weed control at 200 ppm [1] | pest or weed control at 200 ppm [2] | pest or weed control at 200 ppm [3] | pest or weed control at 200 ppm (Pyrenophora teres)

Cc1ccc2c(n1)/C(=N/OCC(CO/N=C1\CCCc3ccc(C)nc31)c1ccccc1)CCC2 (centres unmarked) [P.04]
≥ 80%: pest or weed control at 200 ppm [1] | pest or weed control at 200 ppm [4] | inhibition at 200 ppm [5] | pest or weed control at 200 ppm (Phytophthora infestans) | pest or weed control at 200 ppm [2] | pest or weed control at 200 ppm [3] | pest or weed control at 200 ppm (Pyrenophora teres)

Cc1c2c(nc3ccccc13)/C(=N/OCCCO/N=C1\CCCc3c1nc1ccccc1c3C)CCC2 [P.25]
≥ 80%: pest or weed control at 200 ppm [4] | inhibition at 200 ppm [5] | pest or weed control at 200 ppm [2] | pest or weed control at 200 ppm [3] | pest or weed control at 200 ppm (Pyrenophora teres)

COCc1cc(C)c2c(n1)/C(=N/OCC(C)(C)CO/N=C1\CCCc3ccc(C)nc31)CCC2 [P.42]
≥ 80%: pest or weed control at 200 ppm [1] | pest or weed control at 200 ppm [4] | pest or weed control at 200 ppm [6] | inhibition at 200 ppm [5] | pest or weed control at 200 ppm [2] | pest or weed control at 200 ppm [3] | pest or weed control at 200 ppm (Pyrenophora teres) | inhibition at 200 ppm (Pythium ultimum)

Cc1c2c(nc3ccccc13)/C(=N/OCC(C)(C)CO/N=C1\CCCc3c1nc1ccccc1c3C)CCC2 [P.28]
≥ 80%: pest or weed control at 200 ppm [4] | inhibition at 200 ppm [5] | pest or weed control at 200 ppm [2] | pest or weed control at 200 ppm (Pyrenophora teres)

COc1ccc2c(n1)/C(=N/OCC1(CO/N=C3\CCCc4ccc(OC)nc43)CC1)CCC2 [P.13]
≥ 80%: pest or weed control at 200 ppm [1] | inhibition at 200 ppm [7] | pest or weed control at 200 ppm [4] | inhibition at 200 ppm [5] | pest or weed control at 200 ppm [2] | pest or weed control at 200 ppm [3] | pest or weed control at 200 ppm (Pyrenophora teres)

Cc1cc(CF)c2c(n1)/C(=N/OCCCO/N=C1\CCCc3c(CF)cc(C)nc31)CCC2 [P.48]
≥ 80%: pest or weed control at 200 ppm [1] | pest or weed control at 200 ppm [4] | pest or weed control at 200 ppm [6] | inhibition at 200 ppm [5] | pest or weed control at 200 ppm [2] | pest or weed control at 200 ppm [3] | pest or weed control at 200 ppm (Pyrenophora teres) | inhibition at 200 ppm (Pythium ultimum)

Cc1c2c(nc3ccccc13)/C(=N/OCC1(CO/N=C3\CCCc4c3nc3ccccc3c4C)CC1)CCC2 [P.27]
≥ 80%: pest or weed control at 200 ppm [4] | inhibition at 200 ppm [5] | pest or weed control at 200 ppm [2] | pest or weed control at 200 ppm (Pyrenophora teres)

Cc1ccc2c(n1)/C(=N/OCC(F)CO/N=C1\CCCc3ccc(C)nc31)CCC2 (centres unmarked) [P.14]
≥ 80%: pest or weed control at 200 ppm [1] | pest or weed control at 200 ppm [4] | inhibition at 200 ppm [5] | pest or weed control at 200 ppm [2] | pest or weed control at 200 ppm [3] | inhibition at 200 ppm (Pythium ultimum)

CSc1cc(C)nc2c1CCC/C2=N\OCCCO/N=C1\CCCc2c(SC)cc(C)nc21 [P.43]
≥ 80%: inhibition at 200 ppm [5]

FCc1ccnc2c1CCC/C2=N\OCCCO/N=C1\CCCc2c(CF)ccnc21 [P.36]
≥ 80%: inhibition at 200 ppm [5]

Cc1cc(C(F)F)c2c(n1)/C(=N/OCC1(CO/N=C3\CCCc4c(C(F)F)cc(C)nc43)CC1)CCC2 [P.45]
≥ 80%: pest or weed control at 200 ppm [1] | pest or weed control at 200 ppm [4] | pest or weed control at 200 ppm [6] | inhibition at 200 ppm [5] | pest or weed control at 200 ppm [2] | pest or weed control at 200 ppm [3] | pest or weed control at 200 ppm (Pyrenophora teres)

Cc1ccc2c(n1)/C(=N/OCC(C)(C)CO/N=C1\CCCc3c(N4CCCC4)cc(C)nc31)CCC2 [P.41]
≥ 80%: inhibition at 200 ppm [7] | pest or weed control at 200 ppm [4] | inhibition at 200 ppm [5] | pest or weed control at 200 ppm [2] | pest or weed control at 200 ppm (Pyrenophora teres)

CC(C)(CO/N=C1\CCCc2cc3c(nc21)CCCC3)CO/N=C1\CCCc2cc3c(nc21)CCCC3 [P.50]
≥ 80%: inhibition at 200 ppm [7] | pest or weed control at 200 ppm [4] | inhibition at 200 ppm [5] | pest or weed control at 200 ppm [2] | pest or weed control at 200 ppm (Pyrenophora teres)

Cc1cc(Cl)c2c(n1)/C(=N/OCC1(CO/N=C3\CCCc4c(Cl)cc(C)nc43)CC1)CCC2 [P.12]
≥ 80%: inhibition at 200 ppm [7] | inhibition at 200 ppm [5]

Cc1ccc2c(n1)/C(=N/OCCCO/N=C1\CCCc3ccc(C(F)(F)F)nc31)CCC2 [P.47]
≥ 80%: pest or weed control at 200 ppm [1] | pest or weed control at 200 ppm [4] | inhibition at 200 ppm [5] | pest or weed control at 200 ppm [2] | pest or weed control at 200 ppm [3] | pest or weed control at 200 ppm (Pyrenophora teres)

Cc1ccc2c(n1)/C(=N/OCC(C)(C)CO/N=C1\CC(C)Cc3ccc(-c4ccc(Cl)cc4)nc31)CCC2 (centres unmarked) [P.22]
≥ 80%: inhibition at 200 ppm [5] | pest or weed control at 200 ppm [2]

Cc1ccc2c(n1)/C(=N/OCC(C)(C)CO/N=C1\CCc3ccc(C)nc31)CCC2 [P.08]
≥ 80%: pest or weed control at 200 ppm [4] | inhibition at 200 ppm [5]

Cc1ccc2c(n1)/C(=N/OCC(Cl)CO/N=C1\CCCc3ccc(C)nc31)CCC2 (centres unmarked) [P.24]
≥ 80%: pest or weed control at 200 ppm [1] | pest or weed control at 200 ppm [4] | inhibition at 200 ppm [5] | pest or weed control at 200 ppm [2] | pest or weed control at 200 ppm [3] | pest or weed control at 200 ppm (Pyrenophora teres) | inhibition at 200 ppm (Pythium ultimum)

Cc1ccc2c(n1)/C(=N/OCC1(CO/N=C3\CCCc4ccc(C)nc43)CC1)CCC2 [P.03]
≥ 80%: pest or weed control at 200 ppm [1] | pest or weed control at 200 ppm [4] | inhibition at 200 ppm [5] | pest or weed control at 200 ppm [2] | pest or weed control at 200 ppm [3] | pest or weed control at 200 ppm (Pyrenophora teres) | inhibition at 200 ppm (Pythium ultimum)

Cc1cc(CF)nc2c1CCC/C2=N\OCC(C)(C)CO/N=C1\CCCc2c(C)cc(CF)nc21 [P.34]
≥ 80%: pest or weed control at 200 ppm [1] | pest or weed control at 200 ppm [6] | inhibition at 200 ppm [5] | pest or weed control at 200 ppm [2] | pest or weed control at 200 ppm (Pyrenophora teres)

Cc1ccc2c(n1)/C(=N/OCC(C)(C)CO/N=C1\CCc3ccc(Cl)nc31)CCC2 [P.01]
≥ 80%: inhibition at 200 ppm [5]
